{"source": "ChEMBL document CHEMBL1201862", "about": "“PubChem BioAssay data set” (2004)", "key": {"[1]": {"test": "inhibitors of firefly luciferase expression or activity, dose response, H4 neuroglioma cells, luminescence (AID 1990)", "assay_type": "functional, cell-based"}, "[2]": {"test": "luciferase reporter signal reduction – luminescence, H4-C neuroglioblastoma cells, dose response (AID 2458);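 also: H4 neuroglioblastoma cells stably carrying a luciferase reporter gene fusion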", "assay_type": "functional, cell-based"}, "[3]": {"molecular_target": "T1, Luciferin 4-monooxygenase (Photinus pyralis, UniProt P08659)", "T1 sequence (P08659 whole entry)": "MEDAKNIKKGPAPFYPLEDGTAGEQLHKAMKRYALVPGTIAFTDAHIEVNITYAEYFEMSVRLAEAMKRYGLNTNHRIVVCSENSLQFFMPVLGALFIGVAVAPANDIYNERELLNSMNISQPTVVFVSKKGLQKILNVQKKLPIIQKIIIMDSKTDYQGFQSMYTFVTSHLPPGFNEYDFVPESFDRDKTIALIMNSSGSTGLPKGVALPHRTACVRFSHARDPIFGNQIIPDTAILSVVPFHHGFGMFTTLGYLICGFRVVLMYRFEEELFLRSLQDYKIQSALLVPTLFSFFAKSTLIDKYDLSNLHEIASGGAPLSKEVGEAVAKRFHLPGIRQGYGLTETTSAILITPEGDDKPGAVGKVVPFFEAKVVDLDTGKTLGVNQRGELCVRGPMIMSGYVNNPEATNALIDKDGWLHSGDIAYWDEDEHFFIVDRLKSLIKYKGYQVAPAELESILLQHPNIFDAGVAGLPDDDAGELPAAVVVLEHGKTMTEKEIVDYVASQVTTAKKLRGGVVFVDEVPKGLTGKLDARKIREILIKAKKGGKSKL", "test": "Counter Screen for Luciferase-based Assay Positives. [Related pubchem assays: 620, 618, 411 ]"}, "[4]": {"tested_on": "HEK293", "test": "PMA/Ionomycin induced NF-kB luciferase assay in 293- NF-kB-Luc stable cells. [Related pubchem assays: 1299, 1270, 1295, 1375, 1287, 1281, 1293, 1291, 1289, 1280, 465, 1364, 1282, 1372, 1365, 1370, 1367, 1366, 1269, 1373, 1292, 1290, 1302, 1371, 1283, 1271, 1294, 1374, 1368, 1369 ]", "assay_type": "functional, cell-based", "conditions": "Homo sapiens"}, "[5]": {"molecular_target": "T1, Luciferin 4-monooxygenase", "test": "In vitro luciferase assay using purified luciferase. [Related pubchem assays: 1299, 1270, 1295, 1375, 1287, 1281, 1293, 1291, 1289, 1280, 465, 1364, 1282, 1372, 1365, 1370, 1367, 1366, 1266, 1373, 1292, 1290, 1302, 1371, 1283, 1271, 1294, 1374, 1368, 1369 ]"}, "[6]": {"test": "cells", "assay_type": "functional, cell-based"}, "[7]": {"test": "inhibitors of SNCA 5'UTR-driven reporter translation, confirmation, H4 neuroglioma cells, luminescence (AID 1988)", "assay_type": "functional, cell-based"}, "[8]": {"test": "Luminescence-based counterscreen assay for KLF5 inhibitors: dose response cell-based high throughput screening assay to identify cytotoxic compounds using the IEC-6 intestinal epithelial cell line. [Related pubchem assays: 1700 (Primary screen.), 1834 (Confirmation screen.), 1858 (Summary AID.), 1905 (Counterscreen.)]", "assay_type": "functional"}, "[9]": {"tested_on": "HT-1080", "test": "cytotoxicity in HT1080 fibrosarcoma cells, cell-based, fluorescence readout (AID 620)", "assay_type": "functional", "conditions": "Homo sapiens"}, "[10]": {"tested_on": "HEK293", "test": "Cytotoxicity assay in HEK293 cells. [Related pubchem assays (depositor defined):AID1266, AID1269, AID1270, AID1271, AID1280, AID1281, AID1282, AID1283, AID1287, AID1289, AID1290, AID1291, AID1292, AID1293, AID1294, AID1295, AID1299, AID1302, AID1364, AID1365, AID1366, AID1367, AID1369, AID1370, AID1371, AID1372, AID1373, AID1374, AID1375, AID1384 …", "assay_type": "functional, cell-based", "conditions": "Homo sapiens"}, "[11]": {"test": "inhibitors of SNCA 5'UTR-driven translation, confirmation, luminescence, H4 neuroglioblastoma cells, dose confirmation (AID 2454);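 also: H4 neuroglioblastoma cells carrying an alpha-synuclein 5'UTR luciferase reporter; potency for inhibition of the luciferase signal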", "assay_type": "functional, cell-based"}, "[12]": {"tested_on": "HEK293", "test": "TNF Induced NF-kB Luciferase in 293-NF-kB-Luc Stable Cells. [Related pubchem assays: 1266, 1299, 1269, 1373, 1292, 1290, 1302, 1371, 1283, 1270, 1295, 1271, 1375, 1294, 1374, 1281, 1293, 1291, 1289, 1280, 465, 1368, 1364, 1282, 1372, 1365, 1369, 1370, 1367, 1366 ]", "assay_type": "functional, cell-based", "conditions": "Homo sapiens"}, "[13]": {"test": "cytotoxicity in HEK-293T cells, dose response, cytotoxicity control for BCR NF-kB inhibitor project, luminescence, B-cell screen hits (AID 489021);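 also: cells exposed to compound for about 14 hours before viability readout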", "assay_type": "functional, cell-based"}, "[14]": {"tested_on": "HEK293", "test": "inhibitors of LMP1-driven NF-kB reporter, dose response, cell-based, HEK293, luciferase, cherry-pick (AID 588343)", "assay_type": "functional", "conditions": "Homo sapiens"}, "[15]": {"tested_on": "HEK293", "test": "cytotoxicity in HEK293T NF-kB-Luc cells, SAR follow-up, cytotoxicity control for NF-kB activator project, cell-based, resazurin fluorescence (AID 493251)", "assay_type": "functional", "conditions": "Homo sapiens"}, "[16]": {"tested_on": "Jurkat", "test": "SAR Analysis of small molecule inhibitors of T-cell specific antigen receptor-induced NF-kB activation in a Jurkat cell line using a luminescence assay - Set 2. [Related pubchem assays (depositor defined):AID435003, AID435012, AID465]", "assay_type": "functional, cell-based", "conditions": "Homo sapiens"}, "[17]": {"tested_on": "HEK293", "test": "SAR Analysis of small molecule inhibitors of T-cell specific antigen receptor-induced NF-kB activation in a HEK-293T cell line using a luminescence assay - Set 2. [Related pubchem assays (depositor defined):AID435003, AID435012, AID489026]", "assay_type": "functional, cell-based", "conditions": "Homo sapiens"}, "[18]": {"test": "inhibitors of HIV Env-driven cell fusion, dose response, cherry-pick (AID 652057)", "assay_type": "functional, cell-based"}, "[19]": {"test": "ZM109 Env clade C HIV-1 fusion inhibitors, dose response, HeLa effector, CEM target cells, luciferase, cherry-pick (AID 652058)", "assay_type": "functional, cell-based"}, "[20]": {"test": "off-target signal loss in HeLa-CEM21 co-culture – HeLa F-luc CTL cells, cherry-picked, counter-screen for HIV-1 Env fusion inhibitor project, dose response (AID 652040);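 also: potency for signal decrease marking cytotoxic or nonspecific inhibition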", "assay_type": "functional, cell-based"}, "[21]": {"test": "inhibitors of clade B AD8 Env fusion, dose response, cell-based, cherry-pick (AID 652062);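 also: potency is for inhibitors of fusion seen as a drop in luminescence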", "assay_type": "functional"}, "[22]": {"tested_on": "Candida albicans", "test": "growth inhibition of azole-resistant C. albicans, dose response, CaCi-8 strain, Alamar Blue, dry powder, set 3 (AID 488905)", "assay_type": "functional, organism-based"}, "[23]": {"tested_on": "Candida albicans", "test": "reversal of fluconazole resistance in C. albicans, dose response, CaCi-2 strain, Alamar Blue, dry powder, set 3 (AID 488907)", "assay_type": "functional, organism-based"}, "[24]": {"test": "HEp-2 cell cytotoxicity, dose response, cytotoxicity control for RSV inhibitor project, HTS (AID 2410)", "assay_type": "functional", "conditions": "human respiratory syncytial virus"}, "[25]": {"molecular_target": "Latent membrane protein 1 (Human herpesvirus 4 (strain B95-8), UniProt P03230)", "sequence (P03230 whole entry)": "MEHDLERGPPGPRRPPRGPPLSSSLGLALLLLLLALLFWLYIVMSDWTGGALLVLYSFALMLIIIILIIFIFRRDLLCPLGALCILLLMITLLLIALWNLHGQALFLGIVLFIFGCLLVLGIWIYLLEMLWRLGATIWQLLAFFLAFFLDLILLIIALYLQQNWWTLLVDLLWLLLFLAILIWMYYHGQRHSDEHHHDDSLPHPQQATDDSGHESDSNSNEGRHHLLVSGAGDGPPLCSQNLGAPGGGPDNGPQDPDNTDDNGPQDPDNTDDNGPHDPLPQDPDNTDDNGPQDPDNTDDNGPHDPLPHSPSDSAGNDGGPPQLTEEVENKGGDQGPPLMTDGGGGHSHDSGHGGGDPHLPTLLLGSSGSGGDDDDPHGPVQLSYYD", "test": "TES1-eGFP NF-kB reporter inhibition versus Tet-On dsRED, dose response, selectivity assay for LMP1 NF-kB inhibitor project, imaging, HEK293T, dual-color eGFP/dsRED, cherry-picks (AID 588398)", "assay_type": "functional, cell-based"}}, "note": "Activity calls are given as the source filed them.", "data": [{"smiles": "CC(C)(C)c1ccc(-c2noc(CCC(N)=O)n2)cc1", "values": [{"measurement": "EC50", "setting": "[1]", "result": "< 0.1 µM (active)"}, {"measurement": "EC50", "setting": "[2]", "result": "0.47 µM (active)"}, {"measurement": "EC50", "setting": "[3]", "result": "16.5 µM (active)"}, {"measurement": "EC50", "setting": "[4]", "result": "0.443 µM (active)"}, {"measurement": "EC50", "setting": "[5]", "result": "> 8 µM (not active)"}, {"measurement": "EC50", "setting": "[6]", "result": "0.517 µM (active)"}, {"measurement": "EC50", "setting": "[7]", "result": "< 0.1 µM (active)"}, {"measurement": "IC50", "setting": "[8]", "result": "> 39.8 µM (not active)"}, {"measurement": "EC50", "setting": "[9]", "result": "> 50 µM (not active)"}, {"measurement": "EC50", "setting": "[10]", "result": "14.9 µM (inactive)"}, {"measurement": "EC50", "setting": "[11]", "result": "0.203 µM (active)"}, {"measurement": "EC50", "setting": "[12]", "result": "0.528 µM (active)"}, {"measurement": "IC50", "setting": "[13]", "result": "> 80 µM (inactive)"}, {"measurement": "AC50", "setting": "[14]", "result": "0.401 µM (active)"}, {"measurement": "IC50", "setting": "[15]", "result": "> 80 µM (inactive)"}, {"measurement": "IC50", "setting": "[16]", "result": "0.26 µM (active)"}, {"measurement": "IC50", "setting": "[17]", "result": "0.48 µM (active)"}, {"measurement": "AC50", "setting": "[18]", "result": "0.344 µM (active)"}, {"measurement": "AC50", "setting": "[19]", "result": "< 0.26 µM (active)"}, {"measurement": "AC50", "setting": "[20]", "result": "< 0.26 µM (active)"}, {"measurement": "AC50", "setting": "[21]", "result": "< 0.26 µM (active)"}]}, {"smiles": "COc1ccc(C(=O)N2CCN(c3ccccn3)CC2)cc1", "values": [{"measurement": "AC50", "setting": "[22]", "result": "15.4 µM (active)"}, {"measurement": "AC50", "setting": "[23]", "result": "0.484 µM (active)"}]}, {"smiles": "CCn1c2ccccc2c2cc(/C=N/n3cnnc3)ccc21", "values": [{"measurement": "CC50", "setting": "[24]", "result": "18.2 µM (active)"}, {"measurement": "AC50", "setting": "[14]", "result": "11.5 µM (active)"}, {"measurement": "AC50", "setting": "[25]", "result": "4.05 µM (active)"}]}]}
